The subject of test [1] is Staphylococcus aureus. As to the kind of experiment: Potentiation of berberin induced antibacterial activity against Staphylococcus aureus SA1199 assessed as berberin MIC at 200 uM (reference value: 238 microM). In kind it is functional.
The subject of test [2] is Staphylococcus aureus. The experiment in a line: Antibacterial activity against Staphylococcus aureus SA1199 at 201.4 to 402.8 uM after 18 hrs by CLSI method. In kind it is functional, organism-based.
In test [3] the test system is Staphylococcus aureus. The experiment in a line: Potentiation of berberin induced antibacterial activity against Staphylococcus aureus SA1199 assessed as berberin MIC at 201.4 uM (reference value: 238 microM). In kind it is functional.

These results are taken from ChEMBL document CHEMBL4138144, “Biochemometrics to Identify Synergists and Additives from Botanical Medicines: A Case Study with Hydrastis canadensis (Goldenseal)” (J Nat Prod, 2018).

Molecules are shown by their SMILES. The source made the active and inactive calls. The calls are words filed in the database; no cut-off is given here.

By MIC is commonly meant the least concentration at which growth counts as inhibited.

On to `O=C(/C=C/C=C/c1ccc2c(c1)OCO2)N1CCCCC1` [PIPERINE], for which, in the test with Staphylococcus aureus [1], the minimum inhibitory concentration (MIC) turned out to be 119 µM.

Turning to `COc1ccc(-c2oc3c(C)c(OC)c(C)c(OC)c3c(=O)c2O)cc1O`, the outcome in the test with Staphylococcus aureus [2] was inactive. The MIC in the test on Staphylococcus aureus [3] was determined as 179 µM.
